These results are taken from publication PMC10130856 (Heliyon, 2023).

The target of the test is hen egg-white lysozyme (HEWL) (Gallus gallus, UniProt P00698). Nature of the test: intrinsic tryptophan fluorescence quenching. It is filed as binding. Conditions: pH 7.4, 20 mM sodium phosphate, 298.15 K, 5 μM protein; double-log.
Chain of hen egg-white lysozyme (HEWL) (P00698 19-147): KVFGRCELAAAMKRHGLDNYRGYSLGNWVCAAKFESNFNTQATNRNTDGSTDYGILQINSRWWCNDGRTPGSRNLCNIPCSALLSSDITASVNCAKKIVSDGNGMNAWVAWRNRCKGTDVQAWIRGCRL

With `CCCCC(=O)N(Cc1ccc(-c2ccccc2-c2nn[nH]n2)cc1)[C@H](C(=O)O)C(C)C` [valsartan], the “Kb(M^-1)” value is on record as 2.96 × 10^8±0.21 M^−1.
